Measured values taken from US4505889A, “Protracted release microbiocidal article for aqueous systems” (Rohm and Haas Company, priority 1982, dated 1985).
Converted amounts (≈) assume the structure as drawn.

Legend:
[1] = Rate of release and concentration of active ingredient from sealed cellulose film bags into deionized water, followed by ultraviolet spectroscopy; type: physicochemical; conditions: 1.28 g of 7% composition on Celite 545 in sealed 3-mil cellulose bag, 800 ml deionized water, complete release = 112 ppm
Excerpt: There was sealed in bags of 3-mil cellulose film (3.5 in.^2 surface area) 1.28 g. of each of the three compositions prepared in Example 1 containing compounds A, B, and C, respectively. For comparison, 1.28 g. of a 7% active ingredient solid composition of Kathon®886 (a 3:1 weight ratio blend of 5-chloro-2-methyl-3-isothiazolone and 2-methyl-3-isothiazolone with 15 weight % of Mg(NO3)2 and 9 weight % of MgCl2 in aqueous solution containing 14% active ingredient available from the Rohm and Haas Company) absorbed on Celite®545 was sealed in a bag of 3-mil cellulose film (3.5 in.^2 surface area). The rate of release and concentration of active ingredient from the sealed bags into 800 ml. of deionized water was followed by ultraviolet spectroscopy. Complete release of active ingredient from each sample would give 112 ppm.

[2] = Release of active ingredient from solid Celite 545 composition stirred in deionized water, followed by ultraviolet spectroscopy; type: physicochemical; conditions: for time required to reach a saturated solution: solid composition on Celite 545 in deionized water; for Concentration in Solution at Elapsed Time: 1.28 g of 7% composition on Celite 545 in 800 ml deionized water, total release = 112 ppm
Method: To 13.28 g. of Celite®545 in each of three glass bottles was added 1 g. of the following isothiazolones in 20 ml. of methanol:
Each mixture was then stirred by hand with a spatula until it appeared to be uniformly mixed and free-flowing. Air drying, to remove methanol, affords solid product, 14.28 g., containing 7 weight % of active ingredient.
1.28 g. of each of the resulting solid microbiocidal compositions was stirred in 800 ml. of deionized water. The release of active ingredient was followed by analysis of the supernatant water by ultraviolet spectroscopy. Total release of active ingredient would give 112 ppm.

physchem = conditions: water
[3] = Water solubility of the isothiazolones; conditions: for solubility: water

## CCCCCCCCn1sccc1=O [A, 2-octyl-3-isothiazolone]
[1]; 1 day
  Concentration/Rate of Release: 27 ppm
[1]; 5 days
  Concentration/Rate of Release: 82 ppm
[2]
  time required to reach a saturated solution: less than 1 hours
physchem
  solubility: 500 µg/mL (≈ 2340 µM)

## O=c1c(Cl)c(Cl)sn1C1CCCCC1 [B, 4,5-dichloro-2-cyclohexyl-3-isothiazolone]
[1]; 1 day
  Concentration/Rate of Release: 5 ppm
[1]; 5 days
  Concentration/Rate of Release: 11 ppm
[2]; 0.75 hr.
  Concentration in Solution at Elapsed Time: 27 ppm
[2]; 3.0 hr.
  Concentration in Solution at Elapsed Time: 39 ppm
[2]; 66.0 hr.
  Concentration in Solution at Elapsed Time: 39 ppm
[2]
  time required to reach a saturated solution: 1 to 3 h
[3]; Water Solubility, Example 1 table
  solubility: 40 µg/mL (≈ 159 µM)
[3]; Water Solubility, Example 3 table head
  solubility: 42 µg/mL (≈ 167 µM)

## CCCCCCCCn1sc(Cl)c(Cl)c1=O [Compound C, 4,5-dichloro-2-octyl-3-isothiazolone]
[1]; 1 day
  Concentration/Rate of Release: 0.4 ppm
[1]; 5 days
  Concentration/Rate of Release: 1.7 ppm
[2]; 0.75 hr.
  Concentration in Solution at Elapsed Time: 7 ppm
[2]; 3.0 hr.
  Concentration in Solution at Elapsed Time: 10 ppm
[2]; 23.0 hr.
  Concentration in Solution at Elapsed Time: 14 ppm
[2]; 66.0 hr.
  Concentration in Solution at Elapsed Time: 14 ppm
[3]; Example 3 table head
  Water Solubility: 14 ppm
[3]
  solubility: 14 µg/mL (≈ 49.6 µM)
